In ChEMBL document CHEMBL5223080, “Discovery of Pyrrole-imidazole Polyamides as PD-L1 Expression Inhibitors and Their Anticancer Activity via Immune and Nonimmune Pathways” (J Med Chem, 2021):
The source made the active and inactive calls. The calls are words filed in the database; no cut-off is given here.

Experiments:
HCC827 [1] = experiment: Antimigratory activity in human HCC827 cells assessed as inhibition rate at 2 uM measured after 48 hrs by Wound healing assay relative to control; assay type: functional; design: scale not given: the % may be the effect or the level left
DNA [2] = experiment: Binding affinity to wild type double stranded DNA (unknown origin) at 1:1 compound to DNA ratio incubated for 24 hrs at 340 nm by Circular Dichroism assay; assay type: nucleic-acid assay
Jurkat = experiment: Cytotoxicity against human Jurkat cells at 8 uM incubated for 36 hrs by standard CCK-8 assay; assay type: toxicity, cell-based
HCC827 [3] = experiment: Antimigratory activity in human HCC827 cells assessed as inhibition rate at 0.5 to 1 uM measured after 48 hrs by Wound healing assay relative to control; assay type: functional; design: scale not given: the % may be the effect or the level left; conditions: dose 0.5-1 µM
MDA-MB-231 [4] = experiment: Inhibition of PD-L1 mRNA expression in IFNgamma-induced human MDA-MB-231 cells measured for 36 hrs by qRT-PCR analysis; assay type: functional, cell-based; conditions: dose 1.25-10 µM
dsDNA [5] = experiment: Binding affinity to human wild-type double stranded DNA assessed as thermal stability of compound-DNA complex by measuring change in melting temperature at stoichiometry ratio 1:4 by UV melting assay; assay type: nucleic-acid assay
dsDNA [6] = experiment: Binding affinity to human 5'-biotin-double stranded DNA assessed as dissociation equilibrium constant by surface plasmon resonance; assay type: nucleic-acid assay
MDA-MB-231 [7] = experiment: Antimigratory activity in human MDA-MB-231 cells assessed as inhibition rate at 0.5 to 1 uM measured after 48 hrs by Wound healing assay relative to control; assay type: functional; design: scale not given: the % may be the effect or the level left; conditions: dose 0.5-1 µM
[8] = Induction of T-cell mediated cytotoxicity against human HCC827 cells co-cultured with Jurkat cells assessed as apoptotic cells at 8 uM incubated for 36 hrs by standard CCK-8 assay relative to control; assay type: functional
MDA-MB-231 [9] = experiment: Induction of apoptosis in human MDA-MB-231 cells assessed as inhibition of Akt phosphorylation at 10 uM by Western blot analysis; assay type: functional, cell-based
dsDNA [10] = experiment: Binding affinity to human 5'-biotin-double stranded DNA assessed as association rate constant by surface plasmon resonance; assay type: nucleic-acid assay
MRC5 = experiment: Cytotoxicity against human MRC5 cells at 32 uM by standard CCK-8 assay; assay type: toxicity, cell-based; conditions: mrc5, 32 µM
[11] = Induction of T-cell mediated cytotoxicity against human MDA-MB-231 cells co-cultured with Jurkat cells assessed as apoptotic cells at 8 uM incubated for 36 hrs by standard CCK-8 assay relative to control; assay type: functional
MDA-MB-231 [12] = experiment: Induction of apoptosis in human MDA-MB-231 cells co-cultured with human Jurkat T cells at 8 uM relative to control; assay type: functional
HCC827 [13] = experiment: Induction of apoptosis in human HCC827 cells co-cultured with human Jurkat T cells at 8 uM relative to control; assay type: functional
[14] = Binding affinity to DNA STAT3 binding site of PD-L1 promoter region (unknown origin) assessed as disappearance of band of wild-type double stranded DNA-STAT3 protein complex at > 8 uM by competitive electrophoretic mobility shift assay
dsDNA [15] = experiment: Binding affinity to human mutant double stranded DNA assessed as thermal stability of compound-DNA complex by measuring change in melting temperature at stoichiometry ratio 1:1 by UV melting assay; assay type: nucleic-acid assay
[16] = Binding affinity to human single stranded DNA (unknown origin) by electrophoretic mobility shift assay
[17] = Induction of T-cell mediated cell killing in human MDA-MB-231 cells co-cultured with PMA-activated Jurkat T cells assessed as IL-2 production at 8 uM by ELISA relative to control; assay type: functional
HCC827 [18] = experiment: Induction of apoptosis in human HCC827 cells assessed as inhibition of pro-caspase 3 at 10 uM by Western blot analysis; assay type: functional, cell-based
dsDNA [19] = experiment: Binding affinity to human mutant double stranded DNA assessed as thermal stability of compound-DNA complex by measuring melting change in temperature at stoichiometry ratio 1:4 by UV melting assay; assay type: nucleic-acid assay
[20] = Induction of T-cell mediated cell killing in human HCC827 cells co-cultured with PMA-activated Jurkat T cells assessed as IL-2 production at 8 uM by ELISA relative to control; assay type: functional
DNA [21] = experiment: Binding affinity to wild type 28 nucleotide double stranded DNA (unknown origin) in PD-L1 gene promotor region at 1:1 compound to DNA ratio incubated for 24 hrs by Circular Dichroism assay; assay type: nucleic-acid assay
MDA-MB-231 [22] = experiment: Cytotoxicity against human MDA-MB-231 cells incubated for 36 hrs by standard CCK-8 assay; assay type: functional, cell-based; conditions: for IC50: MDA-MB-231, 36 h; for Activity: dose 2-32 µM
DNA [23] = experiment: Binding affinity to wild type double stranded DNA (unknown origin) incubated for 24 hrs by Circular Dichroism assay; assay type: nucleic-acid assay
dsDNA [24] = experiment: Binding affinity to human wild-type double stranded DNA assessed as thermal stability of compound-DNA complex by measuring change in melting temperature at stoichiometry ratio 1:1 by UV melting assay; assay type: nucleic-acid assay
MDA-MB-231 [25] = experiment: Inhibition of PD-L1 protein expression in IFNgamma-induced human MDA-MB-231 cells measured for 36 hrs by Western blot analysis; assay type: functional, cell-based; conditions: dose 1.25-10 µM
HCC827 [26] = experiment: Induction of apoptosis in human HCC827 cells assessed as inhibition of Akt phosphorylation at 10 uM by Western blot analysis; assay type: functional, cell-based
DNA [27] = experiment: Binding affinity to wild-type double stranded DNA (unknown origin) by assessed as decrease in compound-DNA complex at >=8 uM by competitive electrophoretic mobility shift assay; assay type: nucleic-acid assay
Homo sapiens = organism: Homo sapiens; experiment: Binding affinity to 5'-biotin-double stranded DNA (unknown origin) assessed as saturation of the compound-DNA complex at 350 to 500 nM by surface plasmon resonance; conditions: dose 350-500 nM
MDA-MB-231 [28] = experiment: Induction of apoptosis in human MDA-MB-231 cells assessed as inhibition of pro-caspase 3 at 10 uM by Western blot analysis; assay type: functional, cell-based
MDA-MB-231 [29] = experiment: Antitumour activity against human MDA-MB-231 cells assessed as measuring interleukin-2 levels by ELISA; assay type: functional
dsDNA [30] = experiment: Binding affinity to human 5'-biotin-double stranded DNA assessed as dissociation rate constant by surface plasmon resonance; assay type: nucleic-acid assay
dsDNA [31] = experiment: Binding affinity to human wild-type double stranded DNA assessed as thermal stability of compound-DNA complex by measuring change in melting temperature at stoichiometry ratio 1:0.5 by UV melting assay; assay type: nucleic-acid assay
HCC827 [32] = experiment: Cytotoxicity against human HCC827 cells incubated for 36 hrs by standard CCK-8 assay; assay type: functional, cell-based; conditions: for IC50: HCC827, 36 h; for Activity: dose 2-32 µM
HCC827 [33] = experiment: Inhibition of PD-L1 protein expression in IFNgamma-induced human HCC827 cells measured for 36 hrs by Western blot analysis; assay type: functional, cell-based; conditions: dose 1.25-10 µM
dsDNA [34] = experiment: Binding affinity to human mutant double stranded DNA assessed as thermal stability of compound-DNA complex by measuring melting temperature change in at stoichiometry ratio 1:0.5 by UV melting assay; assay type: nucleic-acid assay
HCC827 [35] = experiment: Antitumour activity against human HCC827 cells assessed as measuring interleukin-2 levels by ELISA; assay type: functional
MDA-MB-231 [36] = experiment: Antimigratory activity in human MDA-MB-231 cells assessed as inhibition rate at 2 uM measured after 48 hrs by Wound healing assay relative to control; assay type: functional; design: scale not given: the % may be the effect or the level left
HCC827 [37] = experiment: Inhibition of PD-L1 mRNA expression in IFNgamma-induced human HCC827 cells measured for 36 hrs by qRT-PCR analysis; assay type: functional, cell-based; conditions: dose 1.25-10 µM
DNA [38] = experiment: Binding affinity to 5'-biotin-double stranded DNA (unknown origin) assessed as interaction with DNA to achieve steady state at 20 nM; assay type: nucleic-acid assay

For `CC(=O)Nc1cc(C(=O)Nc2cc(C(=O)Nc3cc(C(=O)Nc4cn(C)c(C(=O)Nc5cn(C)c(C(=O)NCCC(=O)Nc6cn(C)c(C(=O)NCCCC(=O)Nc7cc(C(=O)Nc8cc(C(=O)Nc9cc(C(=O)NCCC(=O)Nc%10cc(C(=O)Nc%11cn(C)c(C(=O)Nc%12cc(C(=O)NCCC(=O)NCCCN(C)C)n(C)c%12)n%11)n(C)c%10)n(C)c9)n(C)c8)n(C)c7)n6)n5)n4)n(C)c3)n(C)c2)n(C)c1.Cl`, the Activity (HCC827 [1]) was over 70%, the Activity (DNA [2]) was “Active” and the Activity (Jurkat) was “Non-Toxic”. The Activity (HCC827 [3]) was 50%, the inhibition (MDA-MB-231 [4]) was “Dose-Dependent Effect” and the ΔTm (dsDNA [5]) was 7.3 °C. It also gave a Kd (dsDNA [6]) of 0.0499 µM, an Activity (MDA-MB-231 [7]) of 50% and an Activity [8] of 70%. For the same molecule, the Activity (MDA-MB-231 [9]) was “Active”, the Ka (dsDNA [10]) was 6.47 10^6/M/s and the Activity (MRC5) was “Non-Toxic”. The Activity [11] was 82.11%, the Activity (MDA-MB-231 [12]) was 30.84% and the Activity (HCC827 [13]) was 269.14%. For the same molecule, the Activity [14] was “Active”, the ΔTm (dsDNA [15]) was 0.2 °C and the Activity [16] was “inactive”. For the same molecule, the Activity [17] was 60.35%, the inhibition (HCC827 [18]) was “Active” and the ΔTm (dsDNA [19]) was 0.4 °C. The Activity [20] was 57%, the Activity (DNA [21]) was “Active” and the IC50 (MDA-MB-231 [22]) was 9.05 µM. For the same molecule, the Activity (MDA-MB-231 [22]) was “Dose-Dependent Effect”, the Activity (DNA [23]) was “Active” and the ΔTm (dsDNA [24]) was 7 °C. The inhibition (MDA-MB-231 [25]) was “Dose-Dependent Effect”, the Activity (HCC827 [26]) was “Active” and the Activity (DNA [27]) was “Active”. For the same molecule, the Activity (Homo sapiens) was “Active”, the inhibition (MDA-MB-231 [28]) was “Active” and the Activity (MDA-MB-231 [29]) was 87.89 pg/mL. For the same molecule, the Kd (dsDNA [30]) was 32.3 10^-2/s, the ΔTm (dsDNA [31]) was 2.9 °C and the IC50 (HCC827 [32]) was 11.8 µM. For the same molecule, the Activity (HCC827 [32]) was “Dose-Dependent Effect”, the inhibition (HCC827 [33]) was “Dose-Dependent Effect” and the ΔTm (dsDNA [34]) was 0.1 °C. For the same molecule, the Activity (HCC827 [35]) was 51.17 pg/mL, the Activity (MDA-MB-231 [36]) was 86.33% and the inhibition (HCC827 [37]) was “Dose-Dependent Effect”.

For `CC(=O)Nc1cc(C(=O)Nc2cc(C(=O)Nc3cc(C(=O)Nc4cn(C)c(C(=O)Nc5cn(C)c(C(=O)NCCC(=O)Nc6cn(C)c(C(=O)Nc7cc(C(=O)Nc8cc(C(=O)NCCCC(=O)Nc9cc(C(=O)Nc%10cc(C(=O)Nc%11cc(C(=O)NCCC(=O)Nc%12cc(C(=O)Nc%13cc(C(=O)Nc%14cn(C)c(C(=O)Nc%15cc(C(=O)Nc%16cc(C(=O)NCCC(=O)NCCCN(C)C)n(C)c%16)n(C)c%15)n%14)n(C)c%13)n(C)c%12)n(C)c%11)n(C)c%10)n(C)c9)n(C)c8)n(C)c7)n6)n5)n4)n(C)c3)n(C)c2)n(C)c1.Cl`, the Activity (HCC827 [1]) was over 70%, the Activity (DNA [2]) was “Active” and the Activity (Jurkat) was “Non-Toxic”. The Activity (HCC827 [3]) was 50%, the inhibition (MDA-MB-231 [4]) was “Dose-Dependent Effect” and the ΔTm (dsDNA [5]) was 8.6 °C. The Kd (dsDNA [6]) was 0.00828 µM, the Activity (MDA-MB-231 [7]) was 50% and the Activity [8] was 48%. The Ka (dsDNA [10]) was 1.28 10^6/M/s, the Activity (MRC5) was “Non-Toxic” and the Activity [11] was 50.73%. For the same molecule, the Activity (MDA-MB-231 [12]) was 27.76%, the Activity (HCC827 [13]) was 23.4% and the Activity [14] was “Active”. For the same molecule, the ΔTm (dsDNA [15]) was 0.3 °C, the Activity [16] was “inactive” and the Activity [17] was 33%. The Activity (DNA [38]) was “Active”, the ΔTm (dsDNA [19]) was 0.6 °C and the Activity [20] was 31.41%. The Activity (DNA [21]) was “Active”, the IC50 (MDA-MB-231 [22]) was 21.7 µM and the Activity (MDA-MB-231 [22]) was “Dose-Dependent Effect”. The Activity (DNA [23]) was “Active”, the ΔTm (dsDNA [24]) was 8.2 °C and the inhibition (MDA-MB-231 [25]) was “Dose-Dependent Effect”. The Activity (DNA [27]) was “Active”, the Activity (Homo sapiens) was “Active” and the Activity (MDA-MB-231 [29]) was 48.06 pg/mL. For the same molecule, the Kd (dsDNA [30]) was 1.06 10^-2/s, the ΔTm (dsDNA [31]) was 2.7 °C and the IC50 (HCC827 [32]) was 23.2 µM. The Activity (HCC827 [32]) was “Dose-Dependent Effect”, the inhibition (HCC827 [33]) was “Dose-Dependent Effect” and the ΔTm (dsDNA [34]) was 0.2 °C. For the same molecule, the Activity (HCC827 [35]) was 28.2 pg/mL, the Activity (MDA-MB-231 [36]) was over 70% and the inhibition (HCC827 [37]) was “Dose-Dependent Effect”.
